The values that follow come from patent publication US20220016112A1, “DIHYDROQUINOXALINE AND DIHYDROPYRIDOPYRAZINE DERIVATIVES AS RSV INHIBITORS” (Enanta Pharmaceuticals, Inc., priority 2020, published 2022).

The structures appear in SMILES notation.

The subject of one experiment is Human RSV-A (“Long” strain). As to the kind of experiment: RSV in vitro cytoprotection assay in HEp-2 cells (ATPlite readout). Type of experiment: cell-based. The conditions noted are these: human respiratory syncytial virus, 96 h; HEp-2 cells, genotype A “Long” strain RSV, 4-day incubation, ATPlite; read-out: Human RSV-A (“Long” strain) EC50. The source says:
RSV is a single stranded negative sense RNA virus that causes respiratory tract infections which can be dangerous to infants, the elderly, and immunosuppressed individuals. Currently there is no vaccine, and therapeutic options are both costly and of limited effectiveness. These approved treatments are Ribavirin, and Palivizumab/Synagis (a monoclonal antibody). RSV has two genotypes, A and B, which differ primarily in the structure of the virus' surface “G” attachment protein. Our current primary screen focusses on RSV-A and uses an in vitro cytoprotection assay where compounds are added in 2-fold dilutions to cells which are then subjected to fully replicative viral particles. Cell viability is measured several days later along with separate measurements of compound cytotoxicity. This report focuses on the results of our most recent screening of compounds.
HEp-2 cells, (originally derived from tumors grown in irradiated-cortisonised weanling rats that had been injected with epidermoid carcinoma tissue from a person's larynx, but later found to be indistinguishable from HeLa cells by PCR DNA analysis), were used for the culturing of genotype A, “Long” strain RSV. Flasks were inoculated with RSV and viral stocks were collected once cytopathic effect (CPE) was greater than 90%. Viral stocks in 25% sucrose media were snap frozen using liquid nitrogen to increase viral stability. Viral stock titers were quantified by tissue culture infectious dose 50% (TCID50) using 8,000 cells per well and 3-fold viral dilutions across a 96-well plate, cultured for 4 days.
Following extensive parameter testing, the final assay is run as follows: HEp-2 cells are seeded into the inner 60 wells of a 96-well plate at 8,000 cells per well in a volume of 50 μL using Growth Media (DMEM without phenol red, 1% L-Glut, 1% Penn/Strep, 1% nonessential amino acids, 10% FBS). 2-Fold serial dilutions of control and test compounds are added to the wells in duplicate in a total volume of 25 μL. Viral stock is then added to the wells in a volume of 25 μL, bringing the total volume of each well to 100 μL. Each 96-well plate has a control column of 6 wells with cells and virus but no compound (negative control, max CPE), a column with cells but no compound or virus (positive control, minimum CPE), and a column with no cells or virus or compound (background plate/reagent control). The control wells with cells but no virus are given an additional 25 uL of growth media containing an equal quantity of sucrose as those wells receiving the viral stock in order to keep consistent in media and volume conditions. The outer wells of the plate are filled with 125 μL of growth media to act as a thermal and evaporative moat around the test wells. Following a 4-day incubation period, the plates are read using ATPlite (50 uL added per well), which quantifies the amount of ATP (a measure of cell health) present in each well. Assay plates are read using the Envision luminometer. In parallel, cytotoxicity is examined on an additional 96-well plate treated in an identical manner, but substituting the 25 μL of viral stock for 25 μL of growth media. […] EC50 ranges are as follows: A<0.01 μM; B 0.01-0.05 μM; C>0.05 μM.
In general, EC50 refers to the concentration that produces a half-maximal response. Take `Cc1cnc(N2CC3(CCOCC3)C2)c(C(=O)Nc2ccc(C(=O)N3c4ccccc4N=C(c4ccc(C(=O)NC5CC5)s4)[C@@H]3C)cc2)c1` [Example 1]: the concentration for a half-maximal effect (EC50) fell in the range of 10 to 50 nM.

As to `Cc1cnc(N2CC3(CCOCC3)C2)c(C(=O)Nc2ccc(C(=O)N3c4ccccc4N=C(c4ccc(C(=O)Nc5c(C)cccc5F)s4)[C@@H]3C)cc2)c1` [Example 2], the concentration giving a half-maximal response (EC50) was above 50 nM.

As to `Cc1cnc(N2CC3(CCOCC3)C2)c(C(=O)Nc2ccc(C(=O)N3c4ccccc4N=C(c4ccc(C(=O)NC5CCC5)s4)[C@@H]3C)cc2)c1` [Example 3], the EC50 was above 50 nM.

`Cc1cnc(N2CC3(CCOCC3)C2)c(C(=O)Nc2ccc(C(=O)N3c4ccccc4N=C(c4ccc(C(=O)NC5CC5)cc4)[C@@H]3C)cc2)c1` [Example 4]: the EC50 is above 50 nM.

`Cc1cnc(N2CC3(CCOCC3)C2)c(C(=O)Nc2ccc(C(=O)N3c4ccccc4N=C(c4ccc(C(=O)Nc5c(C)cccc5F)cc4)[C@@H]3C)cc2)c1` [Example 5]: the 50% effective concentration (EC50) was above 50 nM.

As for `Cc1cnc(N2CC3(CCOCC3)C2)c(C(=O)Nc2ccc(C(=O)N3c4ccccc4N=C(c4ccc(C(=O)NC5CC5)s4)[C@H]3C)cc2)c1` [Example 6], the EC50 was below 10 nM.

Consider `Cc1cnc(N2CC3(CCOCC3)C2)c(C(=O)Nc2ccc(C(=O)N3c4ccccc4N=C(c4ccc(C(=O)Nc5c(C)cccc5F)s4)[C@H]3C)cc2)c1` [Example 7], for which the EC50 was in the range of 10 to 50 nM.

As to `Cc1cnc(N2CC3(CCOCC3)C2)c(C(=O)Nc2ccc(C(=O)N3c4ccccc4N=C(c4ccc(C(=O)NC5(C)CC5)s4)[C@H]3C)cc2)c1` [Example 8], the EC50 is below 10 nM.

Regarding `Cc1cnc(N2CC3(CCOCC3)C2)c(C(=O)Nc2ccc(C(=O)N3c4ccccc4N=C(c4ccc(C(=O)NC5CCC5)s4)[C@H]3C)cc2)c1` [Example 9], the EC50 is below 10 nM.

As to `Cc1cnc(N2CC3(CCOCC3)C2)c(C(=O)Nc2ccc(C(=O)N3c4ccccc4N=C(c4ccc(C(=O)NC5CC(F)(F)C5)s4)[C@H]3C)cc2)c1` [Example 10], the EC50 fell in the range of 10 to 50 nM.

In the case of `Cc1cnc(N2CC3(CCOCC3)C2)c(C(=O)Nc2ccc(C(=O)N3c4ccccc4N=C(c4ccc(C(=O)NC5(C)CCC5)s4)[C@H]3C)cc2)c1` [Example 11], the half-maximal effective concentration (EC50) was below 10 nM.

For the molecule `Cc1cnc(N2CC3(CCOCC3)C2)c(C(=O)Nc2ccc(C(=O)N3c4ccccc4N=C(c4ccc(C(=O)NC56CC(C5)C6)s4)[C@H]3C)cc2)c1` [Example 12], the EC50 was below 10 nM.

Regarding `Cc1cnc(N2CC3(CCOCC3)C2)c(C(=O)Nc2ccc(C(=O)N3c4ccccc4N=C(c4ccc(C(=O)NC56CC(C)(C5)C6)s4)[C@H]3C)cc2)c1` [Example 13], the concentration giving a half-maximal response (EC50) was below 10 nM.

For the molecule `Cc1cnc(N2CC3(CCOCC3)C2)c(C(=O)Nc2ccc(C(=O)N3c4ccccc4N=C(c4ccc(C(=O)Nc5ncccc5F)s4)[C@H]3C)cc2)c1` [Example 14], the concentration for a half-maximal effect (EC50) was in the range of 10 to 50 nM.

As for `Cc1ccc(C(=O)Nc2ccc(C(=O)N3c4ccccc4N=C(c4ccc(C(=O)NC5CC5)s4)[C@H]3C)cc2)c(N2CC3(CCOCC3)C2)n1` [Example 15], the EC50 is below 10 nM.

For `Cc1ccc(C(=O)Nc2ccc(C(=O)N3c4ccccc4N=C(c4ccc(C(=O)NC5CCC5)s4)[C@H]3C)cc2)c(N2CC3(CCOCC3)C2)n1` [Example 16], the EC50 is below 10 nM.

With `C[C@@H]1C(c2ccc(C(=O)NC3CC3)s2)=Nc2ccccc2N1C(=O)c1ccc(NC(=O)c2cc3c(nc2N2CC4(CCOCC4)C2)CCC3)cc1` [Example 17], the 50% effective concentration (EC50) is below 10 nM.

As for `C[C@@H]1C(c2ccc(C(=O)NC3CCC3)s2)=Nc2ccccc2N1C(=O)c1ccc(NC(=O)c2cc3c(nc2N2CC4(CCOCC4)C2)CCC3)cc1` [Example 18], the EC50 is below 10 nM.

For `C[C@@H]1C(c2ccc(C(=O)NC3CC3)s2)=Nc2ccccc2N1C(=O)c1ccc(NC(=O)c2cc(C3CC3)cnc2N2CC3(CCOCC3)C2)cc1` [Example 19], the 50% effective concentration (EC50) is below 10 nM.

On to `C[C@@H]1C(c2ccc(C(=O)NC3CCC3)s2)=Nc2ccccc2N1C(=O)c1ccc(NC(=O)c2cc(C3CC3)cnc2N2CC3(CCOCC3)C2)cc1` [Example 20], for which the EC50 is below 10 nM.

As to `CCc1cnc(N2CC3(CCOCC3)C2)c(C(=O)Nc2ccc(C(=O)N3c4ccccc4N=C(c4ccc(C(=O)NC5CC5)s4)[C@H]3C)cc2)c1` [Example 21], the EC50 was below 10 nM.

On to `CCc1cnc(N2CC3(CCOCC3)C2)c(C(=O)Nc2ccc(C(=O)N3c4ccccc4N=C(c4ccc(C(=O)NC5CCC5)s4)[C@H]3C)cc2)c1` [Example 22], for which the EC50 is below 10 nM.

In the case of `C[C@@H]1C(c2ccc(C(=O)NC3CC3)s2)=Nc2ccccc2N1C(=O)c1ccc(NC(=O)c2cc(C(F)(F)F)cnc2N2CC3(CCOCC3)C2)cc1` [Example 23], the EC50 is 10 to 50 nM.

Turning to `C[C@@H]1C(c2ccc(C(=O)NC3CCC3)s2)=Nc2ccccc2N1C(=O)c1ccc(NC(=O)c2cc(C(F)(F)F)cnc2N2CC3(CCOCC3)C2)cc1` [Example 24], the EC50 was 10 to 50 nM.

In the case of `Cc1cnc(N2CC3(CCOCC3)C2)c(C(=O)Nc2ccc(C(=O)N3c4ccccc4N=C(c4ccc(C(=O)NC5CC5)cc4)[C@H]3C)cc2)c1` [Example 25], the 50% effective concentration (EC50) is above 50 nM.

With `Cc1cnc(N2CC3(CCOCC3)C2)c(C(=O)Nc2ccc(C(=O)N3c4ccccc4N=C(c4ccc(C(=O)Nc5c(C)cccc5F)cc4)[C@H]3C)cc2)c1` [Example 26], the EC50 was above 50 nM.

For `Cc1cnc(N2CC3(CCOCC3)C2)c(C(=O)Nc2ccc(C(=O)N3c4ccccc4N=C(c4ccc(C(=O)NC5CC5)s4)C3(C)C)cc2)c1` [Example 27], the half-maximal effective concentration (EC50) is above 50 nM.

As to `Cc1cnc(N2CC3(CCOCC3)C2)c(C(=O)Nc2ccc(C(=O)N3c4ccccc4N=C(c4ccc(C(=O)NC5CCC5)s4)C3(C)C)cc2)c1` [Example 28], the EC50 was below 10 nM.

With `Cc1cnc(N2CC3(CCOCC3)C2)c(C(=O)Nc2ccc(C(=O)N3c4cccnc4N=C(c4ccc(C(=O)NC5CCC5)s4)[C@H]3C)cc2)c1` [Example 29], the EC50 was in the range of 10 to 50 nM.

On to `Cc1cnc(N2CC3(CCOCC3)C2)c(C(=O)Nc2ccc(C(=O)N3c4ncccc4N=C(c4ccc(C(=O)NC5CC5)s4)[C@H]3C)cc2)c1` [Example 30], for which the concentration for a half-maximal effect (EC50) was above 50 nM.

In the case of `Cc1cnc(N2CC3(CCOCC3)C2)c(C(=O)Nc2ccc(C(=O)N3c4ncccc4N=C(c4ccc(C(=O)NC5CCC5)s4)[C@H]3C)cc2)c1` [Example 31], the EC50 lay within 10 to 50 nM.

The same experiment, now with this note: human respiratory syncytial virus, HEp-2.
In turn, `O=C(Nc1ccccc1F)N[C@H]1N=C(c2ccccc2)c2ccccc2NC1=O` [RSV-604, reference compound] gave a concentration giving a half-maximal response (EC50) of around 2400 nM.
